Several values for one entry are separate records, joined by “and”; a condition that tells them apart may be missing. Equal entries are not always repeated. Inconclusive results and toxic doses are left out. The calls were made as follows: active = survival T/C of 150% or more; inactive = T/C below 125% in these data.
Test system: P388 leukemia ip, CD2F1 mice, survival T/C
Test: NCI In Vivo Anticancer Drug Screen. Data for tumor model P388 Leukemia (intraperitoneal) in CD2F1 (CDF1) mice
Conditions: endpoint: median survival time, higher = longer survival
Outline: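 Mice carrying the transplanted tumor received test compound or vehicle. Survival was recorded in each group, and the value is the treated-group measurement divided by that of the vehicle-treated control group.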

[1] = dose: 60.0 mg/kg/injection, schedule: Q01DX005 (ip), vehicle: Klucel (hydroxypropylcellulose) (HPC)
[2] = dose: 120.0 mg/kg/injection, schedule: Q01DX005 (ip), vehicle: Klucel (hydroxypropylcellulose) (HPC)
[3] = dose: 100.0 mg/kg/injection, schedule: Q04DX002 (ip), vehicle: saline with Tween-80

Measured: T/C

O=c1cc(CSc2ncnc3nc[nH]c23)[nH]c(=O)[nH]1
inactive: dose: 50.0 mg/kg/injection, schedule: Q01DX009 (ip), vehicle: saline 106 % of control | dose: 100.0 mg/kg/injection, schedule: Q01DX009 (ip), vehicle: saline 111 % of control | dose: 200.0 mg/kg/injection, schedule: Q01DX009 (ip), vehicle: saline 108 % of control

COc1ccc(C(C)c2cc3c(cc2OC)OCO3)cc1C (configuration not stated)
inactive: dose: 25.0 mg/kg/injection, schedule: Q01DX005 (ip), vehicle: Klucel (hydroxypropylcellulose) (HPC) 104 % of control and 105 % of control | dose: 50.0 mg/kg/injection, schedule: Q01DX005 (ip), vehicle: Klucel (hydroxypropylcellulose) (HPC) 100 % of control and 109 % of control and 120 % of control | dose: 100.0 mg/kg/injection, schedule: Q01DX005 (ip), vehicle: Klucel (hydroxypropylcellulose) (HPC) 98 % of control and 105 % of control and 111 % of control | dose: 200.0 mg/kg/injection, schedule: Q01DX005 (ip), vehicle: Klucel (hydroxypropylcellulose) (HPC) 100 % of control and 110 % of control and 120 % of control | dose: 400.0 mg/kg/injection, schedule: Q01DX005 (ip), vehicle: Klucel (hydroxypropylcellulose) (HPC) 100 % of control

Cc1cccc(N=NC2Sc3nc4ccccc4n3C2=O)c1 (configuration not stated)
inactive: [1] 89 % of control | [2] 91 % of control

Cc1ccn2ccnc2c1
inactive: dose: 50.0 mg/kg/injection, schedule: Q01DX009 (ip), vehicle: acetone 102 % of control | dose: 100.0 mg/kg/injection, schedule: Q01DX009 (ip), vehicle: acetone 113 % of control

CCN(CC)CCNC(=O)c1nn(C)c(=S)[nH]c1=O
inactive: dose: 100.0 mg/kg/injection, schedule: Q04DX002 (ip), vehicle: Klucel (hydroxypropylcellulose) (HPC) 93 % of control | dose: 200.0 mg/kg/injection, schedule: Q04DX002 (ip), vehicle: Klucel (hydroxypropylcellulose) (HPC) 93 % of control | dose: 400.0 mg/kg/injection, schedule: Q04DX002 (ip), vehicle: Klucel (hydroxypropylcellulose) (HPC) 101 % of control

NC(=O)c1[nH]cnc1O
inactive: dose: 12.5 mg/kg/injection, schedule: Q01DX005 (ip), vehicle: saline with Tween-80 114 % of control | dose: 25.0 mg/kg/injection, schedule: Q01DX005 (ip), vehicle: saline with Tween-80 107 % of control | dose: 50.0 mg/kg/injection, schedule: Q01DX005 (ip), vehicle: saline with Tween-80 108 % of control and 123 % of control | dose: 100.0 mg/kg/injection, schedule: Q01DX005 (ip), vehicle: saline with Tween-80 114 % of control and 123 % of control | [3] 100 % of control | dose: 200.0 mg/kg/injection, schedule: Q01DX005 (ip), vehicle: saline with Tween-80 123 % of control | dose: 200.0 mg/kg/injection, schedule: Q04DX002 (ip), vehicle: saline with Tween-80 110 % of control

[O-][n+]1onc2ccccc21
inactive: dose: 25.0 mg/kg/injection, schedule: Q04DX002 (ip), vehicle: saline with Tween-80 103 % of control | dose: 50.0 mg/kg/injection, schedule: Q04DX002 (ip), vehicle: saline with Tween-80 109 % of control | [3] 90 % of control

N#Cc1c(-c2ccccc2)cn2c1[nH]c(=O)c1ccccc12
inactive: dose: 60.0 mg/kg/injection, schedule: Q01DX005 (ip), vehicle: saline with Tween-80 111 % of control | dose: 120.0 mg/kg/injection, schedule: Q01DX005 (ip), vehicle: saline with Tween-80 107 % of control | dose: 240.0 mg/kg/injection, schedule: Q01DX005 (ip), vehicle: saline with Tween-80 101 % of control

Cc1c(N)nc(C(CC(N)=O)NCC(N)C(N)=O)nc1C(=O)NC(C(=O)NC(C)C(O)C(C)C(=O)NC(C(=O)NCCc1nc(-c2nc(C(=O)NCCCNCCCCN)cs2)cs1)C(C)O)C(OC1OC(CO)C(O)C(O)C1OC1OC(CO)C(O)C(OC(N)=O)C1O)c1cnc[nH]1 (configuration not stated)
inactive: dose: 12.5 mg/kg/injection, schedule: Q01DX005 (ip), vehicle: saline 117 % of control | dose: 100.0 mg/kg/injection, schedule: Q01DX005 (ip), vehicle: saline 104 % of control

Nc1ncnc2c1ccn2Cc1c(Cl)cccc1Cl
inactive: dose: 50.0 mg/kg/injection, schedule: Q01DX005 (ip), vehicle: distilled water + alcohol 101 % of control | dose: 100.0 mg/kg/injection, schedule: Q01DX005 (ip), vehicle: distilled water + alcohol 101 % of control | dose: 200.0 mg/kg/injection, schedule: Q01DX005 (ip), vehicle: distilled water + alcohol 98 % of control

O=C(CN1CCOCC1)c1c(-c2ccccc2)[nH]c2ccccc12
inactive: dose: 100.0 mg/kg/injection, schedule: Q04DX003 (ip), vehicle: saline 104 % of control | dose: 200.0 mg/kg/injection, schedule: Q04DX003 (ip), vehicle: saline 102 % of control | dose: 400.0 mg/kg/injection, schedule: Q04DX003 (ip), vehicle: saline 95 % of control

CN(C)C(=O)c1ccc(SC(=S)NCc2ccccc2)cc1
inactive: dose: 15.0 mg/kg/injection, schedule: Q01DX005 (ip), vehicle: Klucel (hydroxypropylcellulose) (HPC) 103 % of control | dose: 30.0 mg/kg/injection, schedule: Q01DX005 (ip), vehicle: Klucel (hydroxypropylcellulose) (HPC) 103 % of control | [1] 101 % of control and 104 % of control | [2] 115 % of control

[Cu].[NH-]C1CCCC2CCC[N-]C12.[NH-]C1CCCC2CCC[N-]C12 (configuration not stated)
inactive: dose: 12.5 mg/kg/injection, schedule: Q04DX002 (ip), vehicle: saline with Tween-80 106 % of control

COc1cccc2c1C(=O)c1c(O)c3c(c(O)c1C2=O)C[C@@](O)(C(C)=O)C[C@@H]3OC1CC(N)C(C(C)O)O1 (some centres not stated)
inactive: dose: 3.12 mg/kg/injection, schedule: Q04DX003 (ip), vehicle: distilled water + Tween-80 117 % of control and 101 % of control | dose: 6.25 mg/kg/injection, schedule: Q04DX003 (ip), vehicle: distilled water + Tween-80 112 % of control and 92 % of control | dose: 12.5 mg/kg/injection, schedule: Q04DX003 (ip), vehicle: distilled water + Tween-80 114 % of control and 104 % of control | dose: 25.0 mg/kg/injection, schedule: Q04DX003 (ip), vehicle: distilled water + Tween-80 117 % of control and 111 % of control | dose: 50.0 mg/kg/injection, schedule: Q04DX003 (ip), vehicle: distilled water + Tween-80 117 % of control | dose: 100.0 mg/kg/injection, schedule: Q04DX003 (ip), vehicle: distilled water + Tween-80 119 % of control
